# Data from ChEMBL document CHEMBL3352237, “Synthesis and biological evaluation of novel peptide BF2 as an antibacterial agent against clinical isolates of vancomycin-resistant enterococci” (J Med Chem, 2014).
# Experiments:
# Type in all cases: functional
# Enterococcus faecium [1] = assay: Antibacterial activity against vancomycin-resistant Enterococcus faecium clinical isolate 30/48 after overnight incubation by two-fold serial dilution method
# Enterococcus faecium [2] = assay: Antibacterial activity against vancomycin-resistant Enterococcus faecium clinical isolate 3864 after overnight incubation by two-fold serial dilution method
# Enterococcus faecium [3] = assay: Antibacterial activity against vancomycin-resistant Enterococcus faecium clinical isolate 147969 after overnight incubation by two-fold serial dilution method
# Enterococcus faecium [4] = assay: Antibacterial activity against vancomycin-resistant Enterococcus faecium clinical isolate 27/16917 after overnight incubation by two-fold serial dilution method; conditions: isolate 27/1691
# Enterococcus faecium [5] = assay: Antibacterial activity against vancomycin-resistant Enterococcus faecium clinical isolate 8/224 after overnight incubation by two-fold serial dilution method
# Enterococcus faecium [6] = assay: Antibacterial activity against vancomycin-resistant Enterococcus faecium clinical isolate 6/22 after overnight incubation by two-fold serial dilution method
# Enterococcus faecium [7] = assay: Antibacterial activity against vancomycin-resistant Enterococcus faecium clinical isolate 31176 after overnight incubation by two-fold serial dilution method
# Enterococcus [8] = assay: Antibacterial activity against vancomycin-resistant Enterococcus ATCC 29212 after overnight incubation by two-fold serial dilution method
# Enterococcus [9] = assay: Antibacterial activity against vancomycin-resistant Enterococcus ATCC 51299 after overnight incubation by two-fold serial dilution method
# Enterococcus faecium [10] = assay: Antibacterial activity against vancomycin-resistant Enterococcus faecium clinical isolate 10177 after overnight incubation by two-fold serial dilution method
# Enterococcus faecium [11] = assay: Antibacterial activity against vancomycin-resistant Enterococcus faecium clinical isolate 5484 after overnight incubation by two-fold serial dilution method
# Enterococcus faecium [12] = assay: Antibacterial activity against vancomycin-resistant Enterococcus faecium clinical isolate 12875 after overnight incubation by two-fold serial dilution method
# Enterococcus faecium [13] = assay: Antibacterial activity against vancomycin-resistant Enterococcus faecium clinical isolate 18906 after overnight incubation by two-fold serial dilution method
# Enterococcus faecium [14] = assay: Antibacterial activity against vancomycin-resistant Enterococcus faecium clinical isolate 5396 after overnight incubation by two-fold serial dilution method
# Enterococcus faecium [15] = assay: Antibacterial activity against vancomycin-resistant Enterococcus faecium clinical isolate 31386 after overnight incubation by two-fold serial dilution method
# Enterococcus faecium [16] = assay: Antibacterial activity against vancomycin-resistant Enterococcus faecium clinical isolate 27/221 after overnight incubation by two-fold serial dilution method
# Enterococcus faecium [17] = assay: Antibacterial activity against vancomycin-resistant Enterococcus faecium clinical isolate 28/211 after overnight incubation by two-fold serial dilution method
# Enterococcus faecium [18] = assay: Antibacterial activity against vancomycin-resistant Enterococcus faecium clinical isolate 23/240 after overnight incubation by two-fold serial dilution method
# Enterococcus faecalis [19] = assay: Antibacterial activity against vancomycin-resistant Enterococcus faecalis clinical isolate 7846 after overnight incubation by two-fold serial dilution method
# Enterococcus faecalis [20] = assay: Antibacterial activity against vancomycin-resistant Enterococcus faecalis clinical isolate 27728 after overnight incubation by two-fold serial dilution method
# Enterococcus faecium [21] = assay: Antibacterial activity against vancomycin-resistant Enterococcus faecium clinical isolate 15/213 after overnight incubation by two-fold serial dilution method
# Enterococcus faecalis [22] = assay: Antibacterial activity against vancomycin-resistant Enterococcus faecalis clinical isolate 22626 after overnight incubation by two-fold serial dilution method
# Enterococcus faecalis [23] = assay: Antibacterial activity against vancomycin-resistant Enterococcus faecalis clinical isolate 7077 after overnight incubation by two-fold serial dilution method
# Enterococcus faecalis [24] = assay: Antibacterial activity against vancomycin-resistant Enterococcus faecalis clinical isolate 5642 after overnight incubation by two-fold serial dilution method
# Enterococcus faecium [25] = assay: Antibacterial activity against vancomycin-resistant Enterococcus faecium clinical isolate 12/266 after overnight incubation by two-fold serial dilution method
# Enterococcus faecalis [26] = assay: Antibacterial activity against vancomycin-resistant Enterococcus faecalis clinical isolate 7079 after overnight incubation by two-fold serial dilution method
# Enterococcus faecium [27] = assay: Antibacterial activity against vancomycin-resistant Enterococcus faecium clinical isolate 29/203 after overnight incubation by two-fold serial dilution method
# Enterococcus faecium [28] = assay: Antibacterial activity against vancomycin-resistant Enterococcus faecium clinical isolate 13246 after overnight incubation by two-fold serial dilution method
# Enterococcus faecium [29] = assay: Antibacterial activity against vancomycin-resistant Enterococcus faecium clinical isolate 14643 after overnight incubation by two-fold serial dilution method
# Enterococcus faecium [30] = assay: Antibacterial activity against vancomycin-resistant Enterococcus faecium clinical isolate 16115 after overnight incubation by two-fold serial dilution method
# Enterococcus faecalis [31] = assay: Antibacterial activity against vancomycin-resistant Enterococcus faecalis clinical isolate 5814 after overnight incubation by two-fold serial dilution method
# Enterococcus faecalis [32] = assay: Antibacterial activity against vancomycin-resistant Enterococcus faecalis clinical isolate 21/235 after overnight incubation by two-fold serial dilution method
# Enterococcus faecalis [33] = assay: Antibacterial activity against vancomycin-resistant Enterococcus faecalis clinical isolate 7670 after overnight incubation by two-fold serial dilution method
# Enterococcus faecalis [34] = assay: Antibacterial activity against vancomycin-resistant Enterococcus faecalis clinical isolate 22/203 after overnight incubation by two-fold serial dilution method
# Enterococcus faecium [35] = assay: Antibacterial activity against vancomycin-resistant Enterococcus faecium clinical isolate 151495 after overnight incubation by two-fold serial dilution method
# Enterococcus faecium [36] = assay: Antibacterial activity against vancomycin-resistant Enterococcus faecium clinical isolate 16475 after overnight incubation by two-fold serial dilution method
# Enterococcus faecium [37] = assay: Antibacterial activity against vancomycin-resistant Enterococcus faecium clinical isolate 7/27 after overnight incubation by two-fold serial dilution method
# Enterococcus faecalis [38] = assay: Antibacterial activity against vancomycin-resistant Enterococcus faecalis clinical isolate 6093 after overnight incubation by two-fold serial dilution method
# Enterococcus faecalis [39] = assay: Antibacterial activity against vancomycin-resistant Enterococcus faecalis clinical isolate 387702 after overnight incubation by two-fold serial dilution method
# Enterococcus faecium [40] = assay: Antibacterial activity against vancomycin-resistant Enterococcus faecium clinical isolate 17301 after overnight incubation by two-fold serial dilution method
# Enterococcus faecalis [41] = assay: Antibacterial activity against vancomycin-resistant Enterococcus faecalis clinical isolate 5648 after overnight incubation by two-fold serial dilution method
compound,measurement,setting,value
CN[C@H](CC(C)C)C(=O)N[C@H]1C(=O)N[C@@H](CC(N)=O)C(=O)N[C@H]2C(=O)N[C@H]3C(=O)N[C@H](C(=O)N[C@H](C(=O)O)c4cc(O)cc(O)c4-c4cc3ccc4O)[C@H](O)c3ccc(c(Cl)c3)Oc3cc2cc(c3O[C@@H]2O[C@H](CO)[C@@H](O)[C@H](O)[C@H]2O[C@H]2C[C@](C)(N)[C@H](O)[C@H](C)O2)Oc2ccc(cc2Cl)[C@H]1O [VANCOMYCIN],MIC,Enterococcus faecium [1],64 µg/mL
same,MIC,Enterococcus faecium [2],64 µg/mL
same,MIC,Enterococcus faecium [3],64 µg/mL
same,MIC,Enterococcus faecium [4],64 µg/mL
same,MIC,Enterococcus faecium [5],64 µg/mL
same,MIC,Enterococcus faecium [6],64 µg/mL
same,MIC,Enterococcus faecium [7],64 µg/mL
same,MIC,Enterococcus [8],2 µg/mL
same,MIC,Enterococcus [9],64 µg/mL
same,MIC,Enterococcus faecium [10],64 µg/mL
same,MIC,Enterococcus faecium [11],64 µg/mL
same,MIC,Enterococcus faecium [12],64 µg/mL
same,MIC,Enterococcus faecium [13],64 µg/mL
same,MIC,Enterococcus faecium [14],64 µg/mL
same,MIC,Enterococcus faecium [15],64 µg/mL
same,MIC,Enterococcus faecium [16],64 µg/mL
same,MIC,Enterococcus faecium [17],64 µg/mL
same,MIC,Enterococcus faecium [18],64 µg/mL
H-RWRLLLLLKRH-OH,MIC,Enterococcus faecium [1],25 µg/mL
same,MIC,Enterococcus faecalis [19],25 µg/mL
same,MIC,Enterococcus faecalis [20],25 µg/mL
same,MIC,Enterococcus faecium [21],25 µg/mL
same,MIC,Enterococcus faecium [2],25 µg/mL
same,MIC,Enterococcus faecalis [22],25 µg/mL
same,MIC,Enterococcus faecalis [23],25 µg/mL
same,MIC,Enterococcus faecium [3],25 µg/mL
same,MIC,Enterococcus faecalis [24],25 µg/mL
same,MIC,Enterococcus faecium [4],25 µg/mL
same,MIC,Enterococcus faecium [25],25 µg/mL
same,MIC,Enterococcus faecium [5],25 µg/mL
same,MIC,Enterococcus faecalis [26],25 µg/mL
same,MIC,Enterococcus faecium [6],25 µg/mL
same,MIC,Enterococcus faecium [27],25 µg/mL
same,MIC,Enterococcus faecium [28],25 µg/mL
same,MIC,Enterococcus faecium [29],25 µg/mL
same,MIC,Enterococcus faecium [7],25 µg/mL
same,MIC,Enterococcus [8],25 µg/mL
same,MIC,Enterococcus faecium [30],25 µg/mL
same,MIC,Enterococcus faecalis [31],25 µg/mL
same,MIC,Enterococcus faecalis [32],25 µg/mL
same,MIC,Enterococcus faecalis [33],25 µg/mL
same,MIC,Enterococcus faecalis [34],25 µg/mL
same,MIC,Enterococcus [9],25 µg/mL
same,MIC,Enterococcus faecium [35],25 µg/mL
same,MIC,Enterococcus faecium [36],25 µg/mL
same,MIC,Enterococcus faecium [10],25 µg/mL
same,MIC,Enterococcus faecium [11],25 µg/mL
same,MIC,Enterococcus faecium [12],25 µg/mL
same,MIC,Enterococcus faecium [13],25 µg/mL
same,MIC,Enterococcus faecium [37],25 µg/mL
same,MIC,Enterococcus faecium [14],25 µg/mL
same,MIC,Enterococcus faecium [15],25 µg/mL
same,MIC,Enterococcus faecium [16],25 µg/mL
same,MIC,Enterococcus faecalis [38],25 µg/mL
same,MIC,Enterococcus faecalis [39],25 µg/mL
same,MIC,Enterococcus faecium [40],25 µg/mL
same,MIC,Enterococcus faecium [17],25 µg/mL
same,MIC,Enterococcus faecalis [41],25 µg/mL
same,MIC,Enterococcus faecium [18],25 µg/mL
